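How tested: cells in 96-well plates exposed to compound for 48 hours at five concentrations. Abbreviation: GI50, concentration required for 50% inhibition of growth. Definition used: TGI = concentration required for complete inhibition of growth.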 Some results are limits rather than exact numbers.

Some test systems named below: SN12C renal; SW-620 colon; UACC-62 melanoma; CAKI-1 renal; EKVX NSCLC; M14 melanoma; SK-MEL-28 melanoma; HT29 colon; SNB-75 CNS; OVCAR-3 ovarian.
Holding throughout (assay): inhibition of tumour cell growth, NCI panel, 48 h

With `C=CCO/N=C/c1cc(NC(=S)c2ccoc2C)ccc1Cl`, the TGI in the experiment on SN12C renal is 30.3 µM; with SW-620 colon it was over 100 µM; with UACC-62 melanoma, 35.5 µM; in the experiment on CAKI-1 renal, 23.6 µM; with EKVX NSCLC, 29.2 µM; with M14 melanoma it was 37.9 µM. Also, the TGI with SK-MEL-28 melanoma was over 100 µM; in the experiment on HT29 colon it was 26.2 µM; with SNB-75 CNS it was 38.2 µM; in the experiment with OVCAR-3 ovarian, 24.3 µM.

As to `CCCCCCCCCCN=C(c1ccc(N(C)C)cc1)c1ccc(N(C)C)cc1`, the GI50 in the experiment with SN12C renal was 0.83 µM; with SW-620 colon, 0.425 µM; with UACC-62 melanoma, 0.508 µM; in the experiment on CAKI-1 renal, 1.43 µM; in the experiment on EKVX NSCLC it was 1.04 µM; in the experiment with M14 melanoma it was 0.328 µM. Moreover, the GI50 with SK-MEL-28 melanoma was 7.39 µM; in the experiment with HT29 colon, 0.351 µM; in the experiment on SNB-75 CNS it was 0.4 µM; in the experiment with OVCAR-3 ovarian, 0.428 µM. The TGI in the experiment on SN12C renal is 53.4 µM; in the experiment on SW-620 colon, over 100 µM; in the experiment with UACC-62 melanoma it was over 38.4 µM; with CAKI-1 renal, 64.3 µM; with EKVX NSCLC it was over 100 µM; in the experiment on M14 melanoma, 26.4 µM. Further, the TGI was over 100 µM with SK-MEL-28 melanoma, 18.5 µM in the experiment with HT29 colon, 6.69 µM with SNB-75 CNS and over 24.9 µM with OVCAR-3 ovarian.
